Earlier results in patent publication US6586473B1, “Topical drug delivery composition and method” (Medicis Pharmaceutical Corporation, priority 1989, dated 2003).

Tested on: photoaged skin

CC1=C(/C=C/C(C)=C/C=C/C(C)=C/C(=O)O)C(C)(C)CCC1 [tretinoin, all trans-retinoic acid]
effects of photoaging (wrinkling, sallowness, roughness, mottled pigmentation) (0.1% cream daily for sixteen weeks): can improve the effects of photoaging
dermatitis as a result of treatment (0.1% tretinoin cream, topical): most patients experience dermatitis
duration of initial dermatitis (xerosis, peeling, subjective irritation) (0.1% tretinoin cream, topical): two weeks to three months
